Test results published in article PMC6218957, “VS-4718 Antagonizes Multidrug Resistance in ABCB1- and ABCG2-Overexpressing Cancer Cells by Inhibiting the Efflux Function of ABC Transporters” (Frontiers in Pharmacology, 2018).

Assays:
ABCG2 [1] = molecular target: T1, ABCG2 (Homo sapiens, UniProt Q9UNQ0)
T1 sequence (Q9UNQ0 1-655): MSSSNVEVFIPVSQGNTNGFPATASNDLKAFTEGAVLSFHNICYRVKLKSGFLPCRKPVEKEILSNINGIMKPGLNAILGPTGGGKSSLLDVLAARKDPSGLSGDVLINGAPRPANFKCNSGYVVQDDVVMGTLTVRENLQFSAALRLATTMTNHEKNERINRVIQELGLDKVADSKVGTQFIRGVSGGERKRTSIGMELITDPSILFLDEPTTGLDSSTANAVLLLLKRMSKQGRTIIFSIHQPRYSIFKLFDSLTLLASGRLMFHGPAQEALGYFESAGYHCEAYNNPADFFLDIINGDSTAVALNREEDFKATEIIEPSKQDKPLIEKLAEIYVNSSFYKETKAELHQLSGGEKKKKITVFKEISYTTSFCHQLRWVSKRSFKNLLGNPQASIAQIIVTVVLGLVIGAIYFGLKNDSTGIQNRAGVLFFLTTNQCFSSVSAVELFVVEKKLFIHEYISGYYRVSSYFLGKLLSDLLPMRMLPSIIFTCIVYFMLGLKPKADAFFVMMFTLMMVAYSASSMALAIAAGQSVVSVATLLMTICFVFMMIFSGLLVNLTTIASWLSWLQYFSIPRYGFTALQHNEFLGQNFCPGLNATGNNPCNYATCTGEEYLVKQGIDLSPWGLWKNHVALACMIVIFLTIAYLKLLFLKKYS

ABCB1 [2] = molecular target: T2, ABCB1 (Homo sapiens, UniProt P08183)
ABCG2 [3] = molecular target: T1, ABCG2; assay: biochemical; design: cell membranes that overexpressed ABCG2
ABCB1 [4] = molecular target: T2, ABCB1; assay: ATPase stimulation in ABCB1-overexpressing membranes; also [3H]-paclitaxel accumulation/efflux inhibition in KB-C2 cells; assay type: biochemical; design: cell membranes that overexpressed ABCB1

T2 sequence (P08183 whole entry): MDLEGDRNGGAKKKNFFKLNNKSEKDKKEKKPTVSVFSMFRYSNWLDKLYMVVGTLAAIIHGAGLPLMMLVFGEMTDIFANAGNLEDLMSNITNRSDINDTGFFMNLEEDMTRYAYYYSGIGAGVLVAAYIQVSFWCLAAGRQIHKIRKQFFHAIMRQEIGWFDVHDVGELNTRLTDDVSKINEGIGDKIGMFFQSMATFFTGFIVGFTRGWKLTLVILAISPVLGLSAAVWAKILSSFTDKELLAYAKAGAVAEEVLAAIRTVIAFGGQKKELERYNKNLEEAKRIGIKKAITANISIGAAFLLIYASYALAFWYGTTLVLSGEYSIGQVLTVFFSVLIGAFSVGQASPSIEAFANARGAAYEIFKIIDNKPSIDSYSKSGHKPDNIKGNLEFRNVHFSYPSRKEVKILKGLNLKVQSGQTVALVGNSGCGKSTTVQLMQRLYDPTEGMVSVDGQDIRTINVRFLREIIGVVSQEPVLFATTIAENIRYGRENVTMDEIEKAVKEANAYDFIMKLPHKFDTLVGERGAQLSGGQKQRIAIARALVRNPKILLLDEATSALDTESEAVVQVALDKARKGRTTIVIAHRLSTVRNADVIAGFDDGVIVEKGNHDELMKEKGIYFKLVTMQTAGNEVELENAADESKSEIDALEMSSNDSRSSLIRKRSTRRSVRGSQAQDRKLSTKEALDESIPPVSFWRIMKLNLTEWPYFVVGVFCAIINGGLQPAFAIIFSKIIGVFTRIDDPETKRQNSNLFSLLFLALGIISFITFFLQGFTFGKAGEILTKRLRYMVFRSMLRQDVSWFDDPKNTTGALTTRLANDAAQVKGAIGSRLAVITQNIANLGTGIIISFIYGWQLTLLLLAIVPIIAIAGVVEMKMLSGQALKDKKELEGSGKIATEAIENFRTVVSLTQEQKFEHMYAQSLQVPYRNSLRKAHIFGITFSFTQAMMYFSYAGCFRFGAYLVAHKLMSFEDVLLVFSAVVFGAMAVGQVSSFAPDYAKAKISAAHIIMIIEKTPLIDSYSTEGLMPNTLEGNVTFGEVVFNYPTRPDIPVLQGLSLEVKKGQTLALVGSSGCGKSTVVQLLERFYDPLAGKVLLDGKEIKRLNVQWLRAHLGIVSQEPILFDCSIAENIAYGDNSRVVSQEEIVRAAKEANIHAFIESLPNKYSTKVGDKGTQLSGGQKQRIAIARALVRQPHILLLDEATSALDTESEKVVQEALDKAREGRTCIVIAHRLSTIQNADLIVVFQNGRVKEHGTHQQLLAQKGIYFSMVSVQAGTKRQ

O=C1c2c(O)ccc(O)c2C(=O)c2c(NCCNCCO)ccc(NCCNCCO)c21 [Mitoxantrone]
radiolabelled efflux/accumulation in ABCG2-overexpressing NCI-H460/MX20 vs paren (ABCG2 [1]): [^3H]-mitoxantrone efflux in ABCG2-overexpressing NCI-H460/MX20 cells

CC(=O)O[C@H]1C(=O)[C@@]2(C)[C@H]([C@H](OC(=O)c3ccccc3)[C@]3(O)C[C@H](OC(=O)[C@H](O)[C@@H](NC(=O)c4ccccc4)c4ccccc4)C(C)=C1C3(C)C)[C@]1(OC(C)=O)CO[C@@H]1C[C@@H]2O [Paclitaxel]
radiolabelled efflux/accumulation in ABCB1-overexpressing KB-C2 vs parental KB-3 (ABCB1 [2]): VS-4718 significantly reduced the efflux of [^3H]-paclitaxel in ABCB1-overexpressing KB-C2 cells

CNC(=O)c1ccccc1Nc1cc(Nc2ccc(N3CCOCC3)cc2OC)ncc1C(F)(F)F [VS-4718]
EC50 (ABCG2 [3]): 9.6 µM
EC50 (ABCB1 [4]): 1.72 µM
